Assays:
Format in all cases: in vivo
ECHCG [1] = assay: Pre-emergence biological efficacy; conditions: Echinochloa crus-galli, 312 h, evaluated after 13 days, read-out: damage to plant (100=total damage to plant; 0=no damage to plant)
How it was run: (§1)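 Injury rating (0 = no damage, 100 = plant killed) taken 13 days after a single spray of compound at the chosen dose onto freshly sown pots held 1 day in the glasshouse beforehand.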

AMAPA [2] = assay: Pre-emergence biological efficacy; conditions: Amaranthus palmeri, 312 h, evaluated after 13 days, read-out: damage to plant (100=total damage to plant; 0=no damage to plant)
How it was run: as §1

EPHHL [3] = assay: Pre-emergence biological efficacy; conditions: Euphorbia heterophylla, 312 h, evaluated after 13 days, read-out: damage to plant (100=total damage to plant; 0=no damage to plant)
How it was run: as §1

IPOHE [4] = assay: Pre-emergence biological efficacy; conditions: Ipomoea hederacea, 312 h, evaluated after 13 days, read-out: damage to plant (100=total damage to plant; 0=no damage to plant)
How it was run: as §1

LOLPE [5] = assay: Pre-emergence biological efficacy; conditions: Lolium perenne, 312 h, evaluated after 13 days, read-out: damage to plant (100=total damage to plant; 0=no damage to plant)
How it was run: as §1

SETFA [6] = assay: Pre-emergence biological efficacy; conditions: Setaria faberi, 312 h, evaluated after 13 days, read-out: damage to plant (100=total damage to plant; 0=no damage to plant)
How it was run: as §1

ECHCG [7] = assay: Post-emergence biological efficacy; conditions: Echinochloa crus-galli, 312 h, evaluated after 13 days, read-out: damage to plant (100=total damage to plant; 0=no damage to plant)
How it was run: (§2)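 Plants grown 14 days in glasshouse, then sprayed post-emergence with compound formulated in IF50 and diluted in 0.2% Genapol XO80 to the desired dose. Damage scored after 13 days on a 0–100 scale (100 = total damage).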

AMAPA [8] = assay: Post-emergence biological efficacy; conditions: Amaranthus palmeri, 312 h, evaluated after 13 days, read-out: damage to plant (100=total damage to plant; 0=no damage to plant)
How it was run: as §2

EPHHL [9] = assay: Post-emergence biological efficacy; conditions: Euphorbia heterophylla, 312 h, evaluated after 13 days, read-out: damage to plant (100=total damage to plant; 0=no damage to plant)
How it was run: as §2

IPOHE [10] = assay: Post-emergence biological efficacy; conditions: Ipomoea hederacea, 312 h, evaluated after 13 days, read-out: damage to plant (100=total damage to plant; 0=no damage to plant)
How it was run: as §2

DIGSA = assay: Post-emergence biological efficacy; conditions: Digitaria sanguinalis, 312 h, evaluated after 13 days, read-out: damage to plant (100=total damage to plant; 0=no damage to plant)
How it was run: as §2

LOLPE [11] = assay: Post-emergence biological efficacy; conditions: Lolium perenne, 312 h, evaluated after 13 days, read-out: damage to plant (100=total damage to plant; 0=no damage to plant)
How it was run: as §2

CHEAL = assay: Post-emergence biological efficacy; conditions: Chenopodium album, 312 h, evaluated after 13 days, read-out: damage to plant (100=total damage to plant; 0=no damage to plant)
How it was run: as §2

SETFA [12] = assay: Post-emergence biological efficacy; conditions: Setaria faberi, 312 h, evaluated after 13 days, read-out: damage to plant (100=total damage to plant; 0=no damage to plant)
How it was run: as §2

ELEIN = assay: Post-emergence biological efficacy; conditions: 312 h, evaluated after 13 days, read-out: damage to plant (100=total damage to plant; 0=no damage to plant)
How it was run: as §2

Compound | pest or weed control at 250 g/ha (ECHCG [1]) [%] | pest or weed control at 250 g/ha (AMAPA [2]) [%] | pest or weed control at 250 g/ha (EPHHL [3]) [%] | pest or weed control at 250 g/ha (IPOHE [4]) [%] | pest or weed control at 250 g/ha (LOLPE [5]) [%] | pest or weed control at 250 g/ha (SETFA [6]) [%] | pest or weed control at 250 g/ha (ECHCG [7]) [%] | pest or weed control at 250 g/ha (AMAPA [8]) [%] | pest or weed control at 250 g/ha (EPHHL [9]) [%] | pest or weed control at 250 g/ha (IPOHE [10]) [%] | pest or weed control at 250 g/ha (DIGSA) [%] | pest or weed control at 250 g/ha (LOLPE [11]) [%] | pest or weed control at 250 g/ha (CHEAL) [%] | pest or weed control at 250 g/ha (SETFA [12]) [%] | pest or weed control at 250 g/ha (ELEIN) [%]
CCOC(=O)C1(C)CC(c2cc(-c3cc(C(F)(F)F)ccn3)c(F)cc2Cl)=NO1 (stereo not drawn) [Compound 1-319, Ethyl 3-[2-chloro-4-fluoro-5-[4-(trifluoromethyl)-2-pyridyl]-phenyl]-5-methyl-4H-isoxazole-5-carboxylate] | 30 | 40 | 20 | 0 | 10 | 0 | 60 | 80 | 80 | 100 | 80 | 10 | 90 | 70 | 40
CCOC(=O)C1(C)CC(c2cc(-c3ncc(F)cc3Cl)c(F)cc2Cl)=NO1 (stereo not drawn) [Compound 1-331, Ethyl 3-[2-chloro-5-(3-chloro-5-fluoro-2-pyridyl)-4-fluoro-phenyl]-5-methyl-4H-isoxazole-5-carboxylate] | 90 | 100 | 100 | 60 | 80 | 100 | 100 | 100 | 100 | 100 | 100 | 100 | 100 | 100 | 100
CCOC(=O)C1(C)CC(c2cc(-c3ncc(Cl)cc3C(F)(F)F)c(F)cc2Cl)=NO1 (stereo not drawn) [Compound 1-343, Ethyl 3-[2-chloro-5-[5-chloro-3-(trifluoromethyl)-2-pyridyl]-4-fluoro-phenyl]-5-methyl-4H-isoxazole-5-carboxylate] | 30 | 70 | 50 | 60 | 20 | 50 | 80 | 100 | 100 | 100 | 100 | 60 | 100 | 100 | 100
CCOC(=O)C1(C)CC(c2cc(-c3ncc([N+](=O)[O-])cc3Cl)c(F)cc2Cl)=NO1 (stereo not drawn) [Compound 1-355, Ethyl 3-[2-chloro-5-(3-chloro-5-nitro-2-pyridyl)-4-fluoro-phenyl]-5-methyl-4H-isoxazole-5-carboxylate] | 10 | 0 | 20 | 20 | 20 | 10 | 50 | 100 | 80 | 70 | 50 | 50 | 60 | 40 | 50
CCOC(=O)C1(C)CC(c2cc(-c3cc(C)cc(F)n3)c(F)cc2Cl)=NO1 (stereo not drawn) [Compound 1-367, Ethyl 3-[2-chloro-4-fluoro-5-(6-fluoro-4-methyl-2-pyridyl)-phenyl]-5-methyl-4H-isoxazole-5-carboxylate] | 0 | 0 | 0 | 0 | 0 | 0 | 40 | 0 | 30 | 40 | 50 | 0 | 20 | 40 | 20
CCOC(=O)C1(C)CC(c2cc(-c3cncc(OC)c3)c(F)cc2Cl)=NO1 (stereo not drawn) [Compound 1-379, Ethyl 3-[2-chloro-4-fluoro-5-(5-methoxy-3-pyridyl)-phenyl]-5-methyl-4H-isoxazole-5-carboxylate] | 0 | 0 | 0 | 0 | 0 | 0 | 40 | 100 | 50 | 80 | 60 | 10 | 50 | 40 | 40
CCOC(=O)C1(C)CC(c2cc(-c3cnc(F)c(F)c3)c(F)cc2Cl)=NO1 (stereo not drawn) [Compound 1-391, Ethyl 3-[2-chloro-5-(5,6-difluoro-3-pyridyl)-4-fluoro-phenyl]-5-methyl-4H-isoxazole-5-carboxylate] | 0 | 0 | 0 | 0 | 0 | 0 | 40 | 60 | 50 | 40 | 50 | 10 | 50 | 40 | 40
CCOC(=O)C1(C)CC(c2cc(-c3cnc(F)c(Cl)c3)c(F)cc2Cl)=NO1 (stereo not drawn) [Compound 1-403, Ethyl 3-[2-chloro-5-(5-chloro-6-fluoro-3-pyridyl)-4-fluoro-phenyl]-5-methyl-4H-isoxazole-5-carboxylate] | 40 | 30 | 20 | 10 | 20 | 0 | 40 | 70 | 70 | 50 | 70 | 20 | 70 | 40 | 60
CCOC(=O)C1(C)CC(c2cc(-c3cnc(F)c(OC)c3)c(F)cc2Cl)=NO1 (stereo not drawn) [Compound 1-415, Ethyl 3-[2-chloro-4-fluoro-5-(6-fluoro-5-methoxy-3-pyridyl)-phenyl]-5-methyl-4H-isoxazole-5-carboxylate] | 0 | 0 | 0 | 0 | 0 | 0 | 70 | 100 | 90 | 90 | 40 | 20 | 100 | 90 | 70
CCOC(=O)C1(C)CC(c2cc(-c3cnc(Cl)c(Cl)c3)c(F)cc2Cl)=NO1 (stereo not drawn) [Compound 1-427, Ethyl 3-[2-chloro-5-(5,6-dichloro-3-pyridyl)-4-fluoro-phenyl]-5-methyl-4H-isoxazole-5-carboxylate] | 0 | 0 | 0 | 0 | 0 | 0 | 80 | 100 | 70 | 80 | 40 | 20 | 60 | 100 | 60
